From patent US20120165409A1, “WRINKLE-IMPROVING AGENT” (SHISEIDO COMPANY, LTD., priority 2005, published 2012)

What was measured:
[1] = tested on: Hr-1 (Skh-1) hairless mice; test: Tests of wrinkle improvement on hairless mice (UVB-induced wrinkles); format: in vivo; settings: 3% sample solution in 50% ethanol, 100 μL on back skin once a day, five times a week, versus solvent (50% ethanol), FIG. 1, statistically significant
Source text: Wrinkles were formed on Hr-1 (Skh-1) hairless mice (age 6 to 10 weeks) according to a partly modified version of the method of Schwartz et al. (see Haratake A. et al. J. Invest. Dermatol., 108, 769-775, 1997), in which the mice were repeatedly irradiated with UVB (see Naganuma M. et al. J. Dermatol. Sci., 25, 29-35, 2001; Schwartz E. J. Invest. Dermatol. 91, 158-161, 1988). Specifically, the backs [of the mice] were irradiated with UVB (light source: Toshiba FL-20 SE fluorescent lamp, made by Toshiba Electric) three times a week for ten weeks. The amount of irradiation after the treatment commenced was 36 mJ/cm^2/irradiation. […] The total irradiation amount was 4.6 J/cm^2. Values for the amount of ultraviolet light were measured used a UV radiometer (UVR-305/365D(II), [made by] Topcon). [After] irradiation with ultraviolet light was completed, photographs were taken of the backs of the mice, and the degree of wrinkle generation was scored according to the wrinkle evaluation standards given below using a partially modified version of the method of Bissett et al. (see Bissett, D. L., et al. Photochemistry and Photobiology, 46, 367-378, 1987). Scores of 0, 2, 4, 6, and 8 were used as standard values, and 1, 3, 5, and 7 were used as intermediate scores. […]
The degree of wrinkle improvement of the mice was determined in the following manner. […]

[2] = tested on: healthy male panelists having a large number of wrinkles; test: Tests of improvement in wrinkles that form in the corners of the eyes (half-face blind test, replica analysis and survey); format: in vivo; settings: 2.5 mass % in face lotion, human eye corners
Method: Face lotions (an example and a comparative example) having the compositions given below were applied three times a day using the half-face method (blind tests) to the faces of healthy male panelists having a large number of wrinkles.
Replicas of the eye corner portions to which lotion was applied were acquired using a SILFLO [apparatus] (Flexico Development Ltd.). The proportion of wrinkle area and the proportion of wrinkle volume were determined for before the application of the face lotion (0 M), after one month of application (1 M), and after two months of application (2 M). […] Both the wrinkle area proportion and the wrinkle volume proportion were determined by analyzing the replicas using a wrinkle-measuring apparatus employing a laser-cutting method (see Japanese Laid-Open Patent Application No. 7-113623).
The results of a survey concerning “Impressions of the Effectiveness of Wrinkle Improvement” sent to 23 test subjects are shown in Table 1.

SMILES: O=C(O)CCNC(=O)c1ccccc1 [N-benzoyl-β-alanine]
- degree of wrinkle improvement (score before sample application − score after five weeks of sample application) [1]: reduction in wrinkles dramatically accelerated
- wrinkle-improving effect (overall conclusion of Example 2) [2]: had a wrinkle-improving effect
